Source: ChEMBL document CHEMBL3259629, “Discovery and optimization of piperidyl-1,2,3-triazole ureas as potent, selective, and in vivo-active inhibitors of α/β-hydrolase domain containing 6 (ABHD6)” (J Med Chem, 2013)

Columns and labels:
Conditions in all cases: Neuro2a, 3 nM
[1] = biological target: T1, Acetylcholinesterase (Mus musculus) (UniProt P21836)
T1 sequence (whole entry): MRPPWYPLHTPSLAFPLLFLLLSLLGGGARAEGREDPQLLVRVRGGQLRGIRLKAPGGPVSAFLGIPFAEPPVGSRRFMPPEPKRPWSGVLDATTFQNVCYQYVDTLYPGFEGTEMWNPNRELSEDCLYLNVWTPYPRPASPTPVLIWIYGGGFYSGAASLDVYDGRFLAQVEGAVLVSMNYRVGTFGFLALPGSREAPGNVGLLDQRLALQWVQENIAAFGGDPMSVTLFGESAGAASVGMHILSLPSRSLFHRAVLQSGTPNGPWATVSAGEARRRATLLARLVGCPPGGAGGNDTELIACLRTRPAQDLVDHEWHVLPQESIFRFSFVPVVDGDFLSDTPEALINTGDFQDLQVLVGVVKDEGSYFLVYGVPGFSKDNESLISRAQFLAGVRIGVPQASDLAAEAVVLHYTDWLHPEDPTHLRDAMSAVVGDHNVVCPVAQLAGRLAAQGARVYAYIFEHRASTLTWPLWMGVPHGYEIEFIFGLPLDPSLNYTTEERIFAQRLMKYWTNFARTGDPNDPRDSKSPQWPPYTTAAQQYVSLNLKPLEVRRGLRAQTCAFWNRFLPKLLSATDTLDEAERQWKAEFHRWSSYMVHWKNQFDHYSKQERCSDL
Description: Inhibition of Ache in mouse Neuro2a cells at 3 nM after 4 hrs by ABPP-SILAC assay

[2] = biological target: T2, Lysosomal Pro-X carboxypeptidase (Mus musculus) (UniProt Q7TMR0)
T2 sequence (whole entry): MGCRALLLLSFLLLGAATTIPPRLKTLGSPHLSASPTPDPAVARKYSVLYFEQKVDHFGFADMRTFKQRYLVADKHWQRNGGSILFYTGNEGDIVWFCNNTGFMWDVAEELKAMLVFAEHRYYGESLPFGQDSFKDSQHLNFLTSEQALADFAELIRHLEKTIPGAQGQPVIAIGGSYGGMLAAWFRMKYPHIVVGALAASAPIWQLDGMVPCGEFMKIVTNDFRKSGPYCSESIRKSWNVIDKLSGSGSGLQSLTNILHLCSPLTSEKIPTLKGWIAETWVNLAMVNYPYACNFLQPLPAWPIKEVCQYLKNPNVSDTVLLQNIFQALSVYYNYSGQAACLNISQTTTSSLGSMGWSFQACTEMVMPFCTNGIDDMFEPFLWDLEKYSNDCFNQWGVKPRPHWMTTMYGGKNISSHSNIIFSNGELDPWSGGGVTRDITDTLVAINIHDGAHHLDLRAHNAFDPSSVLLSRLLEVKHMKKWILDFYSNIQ
Description: Inhibition of Prcp in mouse Neuro2a cells at 3 nM after 4 hrs by ABPP-SILAC assay

[3] = biological target: T3, Acyl-coenzyme A thioesterase 2, mitochondrial (Mus musculus) (UniProt Q9QYR9)
T3 sequence (whole entry): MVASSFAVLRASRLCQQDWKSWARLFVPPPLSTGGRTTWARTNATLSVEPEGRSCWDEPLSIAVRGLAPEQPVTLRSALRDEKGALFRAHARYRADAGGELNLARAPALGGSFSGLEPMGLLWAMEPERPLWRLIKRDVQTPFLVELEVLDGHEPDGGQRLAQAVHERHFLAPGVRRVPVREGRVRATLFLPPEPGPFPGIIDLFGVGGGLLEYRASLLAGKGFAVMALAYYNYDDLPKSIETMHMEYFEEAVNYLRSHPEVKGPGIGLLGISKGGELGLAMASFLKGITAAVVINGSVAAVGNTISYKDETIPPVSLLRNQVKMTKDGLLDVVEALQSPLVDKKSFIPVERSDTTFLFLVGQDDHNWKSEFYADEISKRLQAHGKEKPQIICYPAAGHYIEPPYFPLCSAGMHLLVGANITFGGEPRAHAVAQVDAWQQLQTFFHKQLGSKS
Description: Inhibition of Acot2 in mouse Neuro2a cells at 3 nM after 4 hrs by ABPP-SILAC assay

[4] = biological target: T4, GPI inositol-deacylase (Mus musculus) (UniProt Q3UUQ7)
T4 sequence (whole entry): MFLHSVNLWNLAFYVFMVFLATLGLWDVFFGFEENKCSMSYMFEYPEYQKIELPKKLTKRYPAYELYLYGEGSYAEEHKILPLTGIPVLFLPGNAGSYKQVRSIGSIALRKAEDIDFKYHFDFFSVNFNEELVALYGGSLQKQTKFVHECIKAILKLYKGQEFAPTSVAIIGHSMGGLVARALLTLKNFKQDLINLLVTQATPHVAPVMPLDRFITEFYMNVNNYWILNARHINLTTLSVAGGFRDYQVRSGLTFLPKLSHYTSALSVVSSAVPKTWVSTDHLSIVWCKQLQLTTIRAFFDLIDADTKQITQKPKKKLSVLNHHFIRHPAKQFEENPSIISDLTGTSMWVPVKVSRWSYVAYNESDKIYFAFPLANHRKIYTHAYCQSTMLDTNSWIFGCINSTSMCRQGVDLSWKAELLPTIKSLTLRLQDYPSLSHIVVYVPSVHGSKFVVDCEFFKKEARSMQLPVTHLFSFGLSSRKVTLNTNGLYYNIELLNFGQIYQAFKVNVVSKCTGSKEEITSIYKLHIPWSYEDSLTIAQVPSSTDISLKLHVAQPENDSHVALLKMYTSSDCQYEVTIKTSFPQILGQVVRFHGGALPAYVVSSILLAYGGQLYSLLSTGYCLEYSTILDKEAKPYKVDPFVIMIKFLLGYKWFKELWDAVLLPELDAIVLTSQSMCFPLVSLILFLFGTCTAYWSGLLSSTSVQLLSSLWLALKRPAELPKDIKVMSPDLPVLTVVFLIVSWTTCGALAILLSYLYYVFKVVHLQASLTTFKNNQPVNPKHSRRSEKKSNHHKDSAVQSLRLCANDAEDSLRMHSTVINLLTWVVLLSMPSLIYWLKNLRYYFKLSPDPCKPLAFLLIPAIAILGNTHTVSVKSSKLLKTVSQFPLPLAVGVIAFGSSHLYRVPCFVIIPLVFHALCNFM
Description: Inhibition of Pgap1 in mouse Neuro2a cells at 3 nM after 4 hrs by ABPP-SILAC assay

[5] = biological target: T5, Serine protease HTRA2, mitochondrial (Mus musculus) (UniProt Q9JIY5)
T5 sequence (whole entry): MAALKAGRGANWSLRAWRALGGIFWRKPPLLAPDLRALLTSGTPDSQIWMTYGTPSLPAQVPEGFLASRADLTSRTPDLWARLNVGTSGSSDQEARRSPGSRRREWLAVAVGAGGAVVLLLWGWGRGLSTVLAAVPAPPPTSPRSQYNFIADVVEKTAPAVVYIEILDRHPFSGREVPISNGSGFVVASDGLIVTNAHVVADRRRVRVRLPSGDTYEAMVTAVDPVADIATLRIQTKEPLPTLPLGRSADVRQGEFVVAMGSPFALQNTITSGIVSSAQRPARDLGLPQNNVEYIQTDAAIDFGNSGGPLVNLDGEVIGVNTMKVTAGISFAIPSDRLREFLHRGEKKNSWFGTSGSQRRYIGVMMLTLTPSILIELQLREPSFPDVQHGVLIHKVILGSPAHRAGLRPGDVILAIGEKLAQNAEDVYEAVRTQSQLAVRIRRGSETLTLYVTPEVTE
Description: Inhibition of Htra2 in mouse Neuro2a cells at 3 nM after 4 hrs by ABPP-SILAC assay

[6] = biological target: Tripeptidyl-peptidase 2 (Mus musculus) (UniProt Q64514)
Sequence of Tripeptidyl-peptidase 2 (Mus musculus) (Q64514 whole entry): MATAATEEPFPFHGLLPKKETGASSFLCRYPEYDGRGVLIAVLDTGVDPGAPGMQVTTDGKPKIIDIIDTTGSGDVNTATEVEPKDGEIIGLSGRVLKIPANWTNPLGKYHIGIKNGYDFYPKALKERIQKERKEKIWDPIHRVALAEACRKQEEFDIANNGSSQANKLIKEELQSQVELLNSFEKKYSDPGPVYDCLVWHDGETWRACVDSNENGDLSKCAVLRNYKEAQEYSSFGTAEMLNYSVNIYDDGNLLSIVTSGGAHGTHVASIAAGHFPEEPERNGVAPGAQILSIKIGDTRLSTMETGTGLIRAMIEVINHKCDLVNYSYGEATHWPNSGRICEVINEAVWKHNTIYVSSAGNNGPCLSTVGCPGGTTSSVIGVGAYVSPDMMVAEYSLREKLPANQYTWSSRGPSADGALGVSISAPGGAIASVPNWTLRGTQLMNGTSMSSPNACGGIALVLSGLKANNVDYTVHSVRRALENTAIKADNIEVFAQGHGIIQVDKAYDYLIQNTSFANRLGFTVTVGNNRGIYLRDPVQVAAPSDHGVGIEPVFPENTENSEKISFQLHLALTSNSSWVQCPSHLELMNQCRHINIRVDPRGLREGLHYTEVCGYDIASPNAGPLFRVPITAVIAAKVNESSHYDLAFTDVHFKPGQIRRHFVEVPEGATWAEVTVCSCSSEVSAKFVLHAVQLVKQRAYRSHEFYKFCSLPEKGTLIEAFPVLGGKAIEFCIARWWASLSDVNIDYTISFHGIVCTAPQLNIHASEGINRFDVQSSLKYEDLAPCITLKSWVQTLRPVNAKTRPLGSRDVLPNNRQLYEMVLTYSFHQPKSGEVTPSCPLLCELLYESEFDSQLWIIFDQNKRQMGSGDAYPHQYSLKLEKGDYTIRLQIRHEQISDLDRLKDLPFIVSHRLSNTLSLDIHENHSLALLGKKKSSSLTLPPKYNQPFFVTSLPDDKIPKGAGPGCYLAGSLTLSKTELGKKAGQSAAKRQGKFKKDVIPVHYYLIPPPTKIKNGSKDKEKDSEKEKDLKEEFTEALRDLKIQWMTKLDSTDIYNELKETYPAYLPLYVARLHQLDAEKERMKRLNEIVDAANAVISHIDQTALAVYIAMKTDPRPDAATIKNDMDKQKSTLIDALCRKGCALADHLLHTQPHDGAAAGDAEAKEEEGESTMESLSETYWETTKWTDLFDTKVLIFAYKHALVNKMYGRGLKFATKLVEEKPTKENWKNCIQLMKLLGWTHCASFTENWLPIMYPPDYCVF
Description: Inhibition of Tpp2 in mouse Neuro2a cells at 3 nM after 4 hrs by ABPP-SILAC assay

Measured: inhibition

O=C(N1CCCCC1c1ccccc1)n1cc(-c2ccc(-c3cccc(CO)c3)cc2)nn1 (racemic)
< 50%: all assays above

O=C(c1cccc(-c2ccc(-c3cn(C(=O)N4CCCCC4c4ccccc4)nn3)cc2)c1)N1CCCCC1 (racemic)
< 50%: all assays above

O=C(O)c1cccc(-c2ccc(-c3cn(C(=O)N4CCCCC4Cc4ccccc4)nn3)cc2)c1 (racemic)
< 50%: all assays above
